Data from patent US20160122320A1, “USEFUL COMBINATIONS OF MONOBACTAM ANTIBIOTICS WITH BETA-LACTAMASE INHIBITORS” (Basilea Pharmaceutica AG, priority 2005, published 2016).
Where a name gives a salt, the structure may show the parent alone. One block for each compound: values may come before it.

Tests used:
Experiment in all cases: MIC, NCCLS broth microdilution
Assay type in all cases: cell-based
[1] = system: Pseudomonas aeruginosa MK1184; details: for MIC of antibiotic at fixed inhibitor concentration (4 mg/L): MIC of antibiotic compound 1 with the labelled bridged monobactam of formula II and clavulanate, 4 mg/L each
[2] = system: Stenotrophomonas malthophilia 1AC736; details: for MIC of antibiotic at fixed inhibitor concentration (4 mg/L): Stenotrophomonas malthophilia 1AC736, MIC of antibiotic compound 1 with the labelled bridged monobactam of formula II and clavulanate, 4 mg/L each
[3] = system: Enterobacter cloacae P99; details: for MIC of antibiotic at fixed inhibitor concentration (4 mg/L): MIC of antibiotic compound 1 with the labelled bridged monobactam of formula II and clavulanate, 4 mg/L each
[4] = system: Pseudomonas aeruginosa 1973E; details: for MIC of antibiotic at fixed inhibitor concentration (4 mg/L): MIC of antibiotic compound 1 with the labelled bridged monobactam of formula II and clavulanate, 4 mg/L each
Protocol: Antimicrobial activity of the compounds and of their combinations was determined against a selection of organisms according to the standard procedures described by the National Committee for Clinical Laboratory Standards (National Committee for Clinical Laboratory. Standards (2000). Methods for Dilution Antimicrobial Susceptibility Tests for Bacteria That Grow Aerobically-Fifth Edition: Approved Standard M7-A5. NCCLS, Wayne, Pa., USA).
In all cases the final concentration of DMSO incubated with the bacteria is less than or equal to 1%. […] Plates were incubated overnight at an appropriate temperature (30° C. or 37° C.) and optical densities assessed by eye. The MIC value is defined as the lowest compound concentration completely inhibiting visible growth of the test organism. When combinations between compounds of formula I with compounds of formula II and are evaluated the compounds of formula I are tested in dilution series as described above while the compounds of formula II and III-XIII were present in all wells at a constant concentration of 4 μg/mL each.

[5] = system: Acinetobacter sp. J2; details: for MIC of antibiotic at fixed inhibitor concentration (4 mg/L): Acinetobacter sp. J2, MIC of antibiotic compound 1 with the labelled bridged monobactam of formula II and clavulanate, 4 mg/L each
[6] = system: Klebsiella pneumoniae CF104; details: for MIC of antibiotic at fixed inhibitor concentration (4 mg/L): MIC of antibiotic compound 1 with the labelled bridged monobactam of formula II and clavulanate, 4 mg/L each
[7] = system: Serratia marcescens S6; details: for MIC of antibiotic at fixed inhibitor concentration (4 mg/L): MIC of antibiotic compound 1 with the labelled bridged monobactam of formula II and clavulanate, 4 mg/L each

MIC of antibiotic at fixed inhibitor concentration (4 mg/L) [1]: 32 mg/L | MIC of antibiotic at fixed inhibitor concentration (4 mg/L) [2]: 0.125 mg/L | MIC of antibiotic at fixed inhibitor concentration (4 mg/L) [3]: 32 mg/L | MIC of antibiotic at fixed inhibitor concentration (4 mg/L) [4]: 4 mg/L | MIC of antibiotic at fixed inhibitor concentration (4 mg/L) [5]: >32 mg/L | MIC of antibiotic at fixed inhibitor concentration (4 mg/L) [6]: 0.125 mg/L | MIC of antibiotic at fixed inhibitor concentration (4 mg/L) [7]: 0.25 mg/L
Compound: O=C(C[n+]1cccc(Cc2ccccc2)c1)N1CC[C@@H]2[C@H]1C(=O)N2S(=O)(=O)[O-] [Compound 123, (1S,5R)-7-oxo-2-{2-[3-benzylpyridinium]acetyl}-2,6-diazabicyclo[3.2.0]heptane-6-sulfonate, inner salt]

MIC of antibiotic at fixed inhibitor concentration (4 mg/L) [1]: >32 mg/L | MIC of antibiotic at fixed inhibitor concentration (4 mg/L) [2]: 0.125 mg/L | MIC of antibiotic at fixed inhibitor concentration (4 mg/L) [3]: 8 mg/L | MIC of antibiotic at fixed inhibitor concentration (4 mg/L) [4]: 8 mg/L | MIC of antibiotic at fixed inhibitor concentration (4 mg/L) [5]: >32 mg/L | MIC of antibiotic at fixed inhibitor concentration (4 mg/L) [6]: 4 mg/L | MIC of antibiotic at fixed inhibitor concentration (4 mg/L) [7]: 0.5 mg/L
Compound: NC(=O)CNC(=O)c1ccc(NC(=O)N2CC[C@@H]3[C@H]2C(=O)N3S(=O)(=O)[O-])cc1.[Na+] [Compound 312, Sodium(1S,5R)-2-(N-{4-[N-(carbamoylmethyl)carbamoyl]phenyl}carbamoyl)-7-oxo-2,6-diazabicyclo[3.2.0]heptane-6-sulfonate]

MIC of antibiotic at fixed inhibitor concentration (4 mg/L) [1]: 8 mg/L | MIC of antibiotic at fixed inhibitor concentration (4 mg/L) [2]: 0.125 mg/L | MIC of antibiotic at fixed inhibitor concentration (4 mg/L) [3]: 16 mg/L | MIC of antibiotic at fixed inhibitor concentration (4 mg/L) [4]: 4 mg/L | MIC of antibiotic at fixed inhibitor concentration (4 mg/L) [5]: 4 mg/L | MIC of antibiotic at fixed inhibitor concentration (4 mg/L) [6]: 2 mg/L | MIC of antibiotic at fixed inhibitor concentration (4 mg/L) [7]: 0.5 mg/L
Compound: Cc1nnc(SCC(=O)N2CC[C@@H]3[C@H]2C(=O)N3S(=O)(=O)[O-])s1.[Na+] [Compound 202, Sodium(1S,5R)-2-[2-(1-methyl(1,3,4-thiadiazol-2-ylthio))acetyl]-7-oxo-2,6-diazabicyclo[3.2.0]heptane-6-sulfonate]

MIC of antibiotic at fixed inhibitor concentration (4 mg/L) [1]: >32 mg/L | MIC of antibiotic at fixed inhibitor concentration (4 mg/L) [2]: 0.125 mg/L | MIC of antibiotic at fixed inhibitor concentration (4 mg/L) [3]: 16 mg/L | MIC of antibiotic at fixed inhibitor concentration (4 mg/L) [4]: 4 mg/L | MIC of antibiotic at fixed inhibitor concentration (4 mg/L) [5]: >32 mg/L | MIC of antibiotic at fixed inhibitor concentration (4 mg/L) [6]: 0.5 mg/L | MIC of antibiotic at fixed inhibitor concentration (4 mg/L) [7]: 0.5 mg/L
Compound: NS(=O)(=O)c1cccc(NC(=O)N2CC[C@@H]3[C@H]2C(=O)N3S(=O)(=O)[O-])c1.[Na+] [Compound 308]

MIC of antibiotic at fixed inhibitor concentration (4 mg/L) [1]: 8 mg/L | MIC of antibiotic at fixed inhibitor concentration (4 mg/L) [2]: 0.125 mg/L | MIC of antibiotic at fixed inhibitor concentration (4 mg/L) [3]: 32 mg/L | MIC of antibiotic at fixed inhibitor concentration (4 mg/L) [4]: 4 mg/L | MIC of antibiotic at fixed inhibitor concentration (4 mg/L) [5]: 8 mg/L | MIC of antibiotic at fixed inhibitor concentration (4 mg/L) [6]: 0.5 mg/L | MIC of antibiotic at fixed inhibitor concentration (4 mg/L) [7]: 0.25 mg/L
Compound: Nc1cc[n+](CC(=O)N2CC[C@@H]3[C@H]2C(=O)N3S(=O)(=O)[O-])cc1 [Compound 103, (1S,5R)-2-[2-(4-aminopyridinium)acetyl]-7-oxo-2,6-diazabicyclo[3.2.0]heptane-6-sulfonate, inner salt]

MIC of antibiotic at fixed inhibitor concentration (4 mg/L) [1]: >32 mg/L | MIC of antibiotic at fixed inhibitor concentration (4 mg/L) [2]: 0.125 mg/L | MIC of antibiotic at fixed inhibitor concentration (4 mg/L) [3]: 16 mg/L | MIC of antibiotic at fixed inhibitor concentration (4 mg/L) [4]: 8 mg/L | MIC of antibiotic at fixed inhibitor concentration (4 mg/L) [5]: 4 mg/L | MIC of antibiotic at fixed inhibitor concentration (4 mg/L) [6]: 0.5 mg/L | MIC of antibiotic at fixed inhibitor concentration (4 mg/L) [7]: 0.125 mg/L
Compound: Nc1nc(CC(=O)N2CC[C@@H]3[C@H]2C(=O)N3S(=O)(=O)O)cs1 [Compound 401]

MIC of antibiotic at fixed inhibitor concentration (4 mg/L) [1]: >32 mg/L | MIC of antibiotic at fixed inhibitor concentration (4 mg/L) [2]: 0.125 mg/L | MIC of antibiotic at fixed inhibitor concentration (4 mg/L) [3]: 16 mg/L | MIC of antibiotic at fixed inhibitor concentration (4 mg/L) [4]: 4 mg/L | MIC of antibiotic at fixed inhibitor concentration (4 mg/L) [5]: 4 mg/L | MIC of antibiotic at fixed inhibitor concentration (4 mg/L) [6]: 0.5 mg/L | MIC of antibiotic at fixed inhibitor concentration (4 mg/L) [7]: 0.25 mg/L
Compound: COc1cc(CNC(=O)N2CC[C@@H]3[C@H]2C(=O)N3S(=O)(=O)[O-])on1.[Na+] [Compound 313]

MIC of antibiotic at fixed inhibitor concentration (4 mg/L) [1]: 8 mg/L | MIC of antibiotic at fixed inhibitor concentration (4 mg/L) [2]: 0.125 mg/L | MIC of antibiotic at fixed inhibitor concentration (4 mg/L) [3]: 4 mg/L | MIC of antibiotic at fixed inhibitor concentration (4 mg/L) [4]: 4 mg/L | MIC of antibiotic at fixed inhibitor concentration (4 mg/L) [5]: 4 mg/L | MIC of antibiotic at fixed inhibitor concentration (4 mg/L) [6]: <0.06 mg/L | MIC of antibiotic at fixed inhibitor concentration (4 mg/L) [7]: 0.25 mg/L
Compound: Cc1ccc(C(N)=O)c[n+]1CC(=O)N1CC[C@@H]2[C@H]1C(=O)N2S(=O)(=O)[O-] [Compound 111, (1S,5R)-2-[2-(3-carbamoyl-6-methylpyridinium)acetyl]-7-oxo-2,6-diazabicyclo[3.2.0]heptane-6-sulfonate, inner salt]

MIC of antibiotic at fixed inhibitor concentration (4 mg/L) [1]: 16 mg/L | MIC of antibiotic at fixed inhibitor concentration (4 mg/L) [2]: 0.125 mg/L | MIC of antibiotic at fixed inhibitor concentration (4 mg/L) [3]: 32 mg/L | MIC of antibiotic at fixed inhibitor concentration (4 mg/L) [4]: 8 mg/L | MIC of antibiotic at fixed inhibitor concentration (4 mg/L) [5]: 8 mg/L | MIC of antibiotic at fixed inhibitor concentration (4 mg/L) [6]: 0.5 mg/L | MIC of antibiotic at fixed inhibitor concentration (4 mg/L) [7]: 0.125 mg/L
Compound: NC(=O)c1cc[n+](CC(=O)N2CC[C@@H]3[C@H]2C(=O)N3S(=O)(=O)[O-])cc1 [Compound 105, (1S,5R)-2-[2-(4-carbamoylpyridinium)acetyl]-7-oxo-2,6-diazabicyclo[3.2.0]heptane-6-sulfonate, inner salt]

MIC of antibiotic at fixed inhibitor concentration (4 mg/L) [1]: 4 mg/L | MIC of antibiotic at fixed inhibitor concentration (4 mg/L) [2]: 0.125 mg/L | MIC of antibiotic at fixed inhibitor concentration (4 mg/L) [3]: 4 mg/L | MIC of antibiotic at fixed inhibitor concentration (4 mg/L) [4]: 2 mg/L | MIC of antibiotic at fixed inhibitor concentration (4 mg/L) [5]: 4 mg/L | MIC of antibiotic at fixed inhibitor concentration (4 mg/L) [6]: 1 mg/L | MIC of antibiotic at fixed inhibitor concentration (4 mg/L) [7]: 0.25 mg/L
Compound: NC(=O)c1ccc[n+](CC(=O)N2CC[C@@H]3[C@H]2C(=O)N3S(=O)(=O)[O-])c1 [Compound 102, (1S,5R)-2-[2-β-carbamoylpyridinium)acetyl]-7-oxo-2,6-diazabicyclo[3.2.0]heptane-6-sulfonate, inner salt]

MIC of antibiotic at fixed inhibitor concentration (4 mg/L) [1]: 32 mg/L | MIC of antibiotic at fixed inhibitor concentration (4 mg/L) [2]: 0.125 mg/L | MIC of antibiotic at fixed inhibitor concentration (4 mg/L) [3]: 8 mg/L | MIC of antibiotic at fixed inhibitor concentration (4 mg/L) [4]: 4 mg/L | MIC of antibiotic at fixed inhibitor concentration (4 mg/L) [5]: 4 mg/L | MIC of antibiotic at fixed inhibitor concentration (4 mg/L) [6]: >32 mg/L | MIC of antibiotic at fixed inhibitor concentration (4 mg/L) [7]: 0.125 mg/L
Compound: O=C(Nc1ccc(NC(=O)N2CC[C@@H]3[C@H]2C(=O)N3S(=O)(=O)O)cc1)N1CCNCC1 [Compound 326, (1S,5R)-7-oxo-2-{N-[4-(piperazinylcarbonylamino)phenyl]carbamoyl}-2,6-diazabicyclo[3.2.0]heptane-6-sulfonic acid]

MIC of antibiotic ([1]; antibiotic alone, no inhibitor): 32 mg/L | MIC of antibiotic at fixed inhibitor concentration of 4 mg/L ([1]; with 102 and clavulanate): 16 mg/L | MIC of antibiotic at fixed inhibitor concentration of 4 mg/L ([1]; with 324 and clavulanate): 32 mg/L | MIC of antibiotic ([2]; Stenotrophomonas maltophilia 1AC736, antibiotic alone, no inhibitor): 2 mg/L | MIC of antibiotic at fixed inhibitor concentration of 4 mg/L ([2]; Stenotrophomonas maltophilia 1AC736, with 102 and clavulanate): 2 mg/L | MIC of antibiotic at fixed inhibitor concentration of 4 mg/L ([2]; Stenotrophomonas maltophilia 1AC736, with 324 and clavulanate): 2 mg/L | MIC of antibiotic ([3]; antibiotic alone, no inhibitor): 32 mg/L | MIC of antibiotic at fixed inhibitor concentration of 4 mg/L ([3]; with 102 and clavulanate): 4 mg/L | MIC of antibiotic at fixed inhibitor concentration of 4 mg/L ([3]; with 324 and clavulanate): 16 mg/L | MIC of antibiotic ([4]; antibiotic alone, no inhibitor): 32 mg/L | MIC of antibiotic at fixed inhibitor concentration of 4 mg/L ([4]; with 102 and clavulanate): 16 mg/L | MIC of antibiotic at fixed inhibitor concentration of 4 mg/L ([4]; with 324 and clavulanate): 16 mg/L | MIC of antibiotic ([5]; Acinetobacter baumannii J2, antibiotic alone, no inhibitor): >32 mg/L | MIC of antibiotic at fixed inhibitor concentration of 4 mg/L ([5]; Acinetobacter baumannii J2, with 102 and clavulanate): 16 mg/L | MIC of antibiotic at fixed inhibitor concentration of 4 mg/L ([5]; Acinetobacter baumannii J2, with 324 and clavulanate): 8 mg/L | MIC of antibiotic ([6]; antibiotic alone, no inhibitor): 2 mg/L | MIC of antibiotic at fixed inhibitor concentration of 4 mg/L ([6]; with 102 and clavulanate): 0.5 mg/L | MIC of antibiotic at fixed inhibitor concentration of 4 mg/L ([6]; with 324 and clavulanate): 0.5 mg/L | MIC of antibiotic ([7]; antibiotic alone, no inhibitor): 0.5 mg/L | MIC of antibiotic at fixed inhibitor concentration of 4 mg/L ([7]; with 102 and clavulanate): 0.25 mg/L | MIC of antibiotic at fixed inhibitor concentration of 4 mg/L ([7]; with 324 and clavulanate): 0.25 mg/L
Compound: CC1(C)C(NC(=O)C(=NOCc2cc(=O)c(O)cn2O)c2csc(N)n2)C(=O)N1OCC(=O)O (centres unmarked) [Compound 33]
